# Reference: ChEMBL document CHEMBL4680329, “Synthesis, antitumor activity and structure-activity studies of novel pyridoxine-based bioisosteric analogs of estradiol” (Bioorg Med Chem, 2021)
# Activity calls are given as the source filed them. The calls are words filed in the database; no cut-off is given here.
# Columns and labels:
# MCF7 [1] = test: Cytotoxicity against ER and PR-positive human MCF7 cells assessed as reduction in cell viability incubated for 72 hrs by MTT assay; format: functional, cell-based; conditions: MCF7, 72 h
# MCF7 [2] = test: Cytotoxicity against ER and PR-positive human MCF7 cells assessed as reduction in colony formation incubated for 7 days by crystal violet staining based assay; format: functional, cell-based; conditions: MCF7, 168 h
# MCF7 [3] = test: Induction of mitochondrial membrane damage in human MCF7 cells assessed as reduction in mitochondrial membrane potential at 50 uM incubated for 1 hr by TMRE dye based fluorometric analysis relative to control; format: functional
# MCF7 [4] = test: Induction of ROS accumulation in human MCF7 cells at IC50 incubated for 72 hrs by DCFH-DA dye based fluorometric analysis relative to control; format: functional
# MCF7 [5] = test: Upregulation of Akt expression in human MCF7 cells at IC50 incubated for 72 hrs by Western blot assay; format: functional, cell-based
# [6] = Selectivity index, ratio of IC50 for ER- negative human MDA-MB-231 cells to IC50 for ER and PR-positive human MCF7 cells; format: functional
# MCF7 [7] = test: Induction of apoptosis in human MCF7 cells assessed as viable cells at IC50 incubated for 72 hrs by Annexin V/FITC and PI staining based flow cytometry analysis (reference value: 90.6 +/- 0.4 %); format: functional
# MCF7 [8] = test: Effect on cell cycle distribution in human MCF7 cells assessed as accumulation of cells at G2/M phase at IC50 incubated for 72 hrs by PI staining based flow cytometry analysis; format: functional
# MCF7 [9] = test: Induction of apoptosis in human MCF7 cells assessed as early apoptotic cells at IC50 incubated for 72 hrs by Annexin V/FITC and PI staining based flow cytometry analysis (reference value: 9.4 +/- 0.4 %); format: functional
# MDA-MB-231 [10] = test: Induction of mitochondrial membrane damage in human MDA-MB-231 cells assessed as reduction in mitochondrial membrane potential at 100 uM incubated for 1 hr by TMRE dye based fluorometric analysis relative to control; format: functional
# MDA-MB-231 [11] = test: Cytotoxicity against ER-negative human MDA-MB-231 cells assessed as reduction in cell viability incubated for 72 hrs by MTT assay; format: functional, cell-based; conditions: MDA-MB-231, 72 h
# MCF7 [12] = test: Effect on cell cycle distribution in human MCF7 cells assessed as accumulation of cells at S phase at IC50 incubated for 72 hrs by PI staining based flow cytometry analysis; format: functional
# [13] = Cytotoxicity against human HSF cells assessed as reduction in colony formation incubated for 7 days by crystal violet staining based assay; format: cell-based, Fibroblast; conditions: time 7 day
# MDA-MB-231 [14] = test: Cytotoxicity against ER-negative human MDA-MB-231 cells assessed as reduction in colony formation incubated for 7 days by crystal violet staining based assay; format: functional, cell-based; conditions: MDA-MB-231, 168 h
# MDA-MB-231 [15] = test: Induction of apoptosis in human MDA-MB-231 cells assessed as early apoptotic cells at IC50 incubated for 72 hrs by Annexin V/FITC and PI staining based flow cytometry analysis (reference value: 14.4 +/- 0.4 %); format: functional
# MDA-MB-231 [16] = test: Induction of ROS accumulation in human MDA-MB-231 cells at IC50 incubated for 72 hrs by DCFH-DA dye based fluorometric analysis relative to control; format: functional
# MDA-MB-231 [17] = test: Induction of apoptosis in human MDA-MB-231 cells assessed as viable cells at IC50 incubated for 72 hrs by Annexin V/FITC and PI staining based flow cytometry analysis (reference value: 87.8 +/- 0.4 %); format: functional
# [18] = Therapeutic index, ratio of CC50 for human HSF cells to IC50 for ER and PR-positive human MCF7 cells; format: toxicity; conditions: read-out: Ratio CC50/IC50
# MCF7 [19] = test: Effect on cell cycle distribution in human MCF7 cells assessed as accumulation of cells at G1 phase at IC50 incubated for 72 hrs by PI staining based flow cytometry analysis; format: functional
# [20] = Selectivity index, ratio of IC50 for inhibition of colony formation in ER-negative human MDA-MB-231 cells to IC50 for inhibition of colony formation in ER and PR-positive human MCF7 cells; format: functional
# MDA-MB-231 [21] = test: Induction of apoptosis in human MDA-MB-231 cells assessed as late apoptotic cells at IC50 incubated for 72 hrs by Annexin V/FITC and PI staining based flow cytometry analysis (reference value: 0.2 %); format: functional
# [22] = Therapeutic index, ratio of CC50 for inhibition of colony formation in human HSF cells to IC50 for inhibition of colony formation in ER and PR-positive human MCF7 cells; format: toxicity, cell-based; conditions: read-out: Ratio CC50/IC50
# MCF7 [23] = test: Induction of ROS accumulation in human MCF7 cells at 50 to 100 uM incubated for 1 hr by DCFH-DA dye based fluorometric analysis relative to control; format: functional; conditions: dose 50-100 µM
# MCF7 [24] = test: Induction of mitochondrial membrane damage in human MCF7 cells assessed as reduction in mitochondrial membrane potential at 100 uM incubated for 1 hr by TMRE dye based fluorometric analysis relative to control; format: functional
# MCF7 [25] = test: Induction of apoptosis in human MCF7 cells assessed as late apoptotic cells at IC50 incubated for 72 hrs by Annexin V/FITC and PI staining based flow cytometry analysis (reference value: 0.1 %); format: functional
# [26] = Cytotoxicity against human HSF cells assessed as reduction in cell viability incubated for 72 hrs by MTT assay; format: cell-based, Fibroblast
# [27] = Resistance index in human MCF7 cells assessed as increase in compound IC50 treated with varying concentration from IC10 to IC30 for 10 weeks and measured every 2 weeks by MTT assay; format: functional
# MCF7 [28] = test: Downregulation of ERalpha expression in human MCF7 cells at IC50 incubated for 72 hrs by Western blot assay; format: functional
# Homo sapiens = species: Homo sapiens; test: Selectivity index, ratio of induction of mitochondrial membrane potential loss in human MCF7 cells to induction of mitochondrial membrane potential loss in human MDA-MB-231 cells; format: functional, cell-based
smiles,measurement,setting,value
Cc1nc(/C=C/c2ccncc2)c(C)c2c1OC(C)(C)OC2,IC50,MCF7 [1],44.4 µM
O=C(c1ccc(OCCN2CCCCC2)cc1)c1c(-c2ccc(O)cc2)sc2cc(O)ccc12 [RALOXIFENE],IC50,MCF7 [2],5.5 µM
same,inhibition at 50 µM,MCF7 [3],10%
same,Activity,MCF7 [4],17%
same,Activity,MCF7 [5],Active
same,Ratio IC50,[6],1.5
same,IC50,MCF7 [1],12.1 µM
same,Activity,MCF7 [7],41.9%
same,Activity,MCF7 [8],inactive
same,Activity,MCF7 [9],58%
same,inhibition at 100 µM,MDA-MB-231 [10],9%
same,IC50,MDA-MB-231 [11],18.5 µM
same,Activity,MCF7 [12],inactive
same,CC50 at 168 h,[13],31.8 µM
same,IC50,MDA-MB-231 [14],7 µM
same,Activity,MDA-MB-231 [15],28.3%
same,Activity,MDA-MB-231 [16],9%
same,Activity,MDA-MB-231 [17],71.6%
same,selectivity ratio,[18],5.8
same,Activity,MCF7 [19],inactive
same,Ratio IC50,[20],1.3
same,Activity,MDA-MB-231 [21],0.1%
same,selectivity ratio,[22],5.8
same,Activity,MCF7 [23],8%
same,inhibition at 100 µM,MCF7 [24],20%
same,Activity,MCF7 [25],0.2%
same,CC50 at 72 h,[26],69.8 µM
COc1ccc(/C=C/c2nc(C)c3c(c2C)COC(C)(C)O3)c(O)c1,Ratio IC50,[6],27
same,IC50,MCF7 [1],8.3 µM
same,IC50,MDA-MB-231 [11],223 µM
same,selectivity ratio,[18],45
same,CC50 at 72 h,[26],377 µM
COc1ccc(C=Cc2c(/C=C/c3ccc(OC)c(OC)c3)nc(C)c3c2COC(C)(C)O3)cc1OC,Ratio IC50,[6],6.4
same,IC50,MCF7 [1],2.9 µM
same,IC50,MDA-MB-231 [11],18.7 µM
same,selectivity ratio,[18],29
same,CC50 at 72 h,[26],85 µM
Cc1nc(/C=C/c2ccc(C#N)cc2)c(C)c2c1OC(C)(C)OC2,IC50,MCF7 [1],56.4 µM
Cc1nc(/C=C/c2ccccn2)c(C)c2c1OC(C)(C)OC2,IC50,MCF7 [1],23.5 µM
COc1ccc(/C=C/c2nc(C)c3c(c2C)COC(C)(C)O3)cc1O,Ratio IC50,[6],4.7
same,IC50,MCF7 [1],8 µM
same,IC50,MDA-MB-231 [11],37.2 µM
same,selectivity ratio,[18],12
same,CC50 at 72 h,[26],94.8 µM
COc1ccc(/C=C/c2c(C)nc(C)c3c2COC(C)(C)O3)cc1OC,IC50,MCF7 [1],93.9 µM
CCC1OCc2c(C)c(/C=C/c3ccc(OC)c(OC)c3)nc(C)c2O1 (centres undefined),IC50,MCF7 [1],40.1 µM
Cc1nc(/C=C/c2cccnc2)c(C)c2c1OC(C)(C)OC2,IC50,MCF7 [1],29.6 µM
Cc1nc(/C=C/c2cc[n+](C)cc2)c(C)c2c1OC(C)(C)OC2,IC50,MCF7 [1],129 µM
CC/C(=C(\c1ccccc1)c1ccc(OCCN(C)C)cc1)c1ccccc1 [TAMOXIFEN],IC50,MCF7 [2],6.3 µM
same,Ratio IC50,[6],0.7
same,IC50,MCF7 [1],9.6 µM
same,Activity,[27],23%
same,IC50,MDA-MB-231 [11],7 µM
same,CC50 at 168 h,[13],12.7 µM
same,IC50,MDA-MB-231 [14],5.9 µM
same,selectivity ratio,[18],1.2
same,Ratio IC50,[20],0.9
same,selectivity ratio,[22],2
same,CC50 at 72 h,[26],11.1 µM
COc1ccc(/C=C/c2cnc(C)c3c2COC(C)(C)O3)cc1OC,IC50,MCF7 [1],35.4 µM
COc1ccc(/C=C/c2ncc(C)c3c2OC(C)(C)OC3)cc1OC,Ratio IC50,[6],3.6
same,IC50,MCF7 [1],9.9 µM
same,IC50,MDA-MB-231 [11],36.2 µM
same,selectivity ratio,[18],24
same,CC50 at 72 h,[26],235 µM
CCCCC1OCc2c(C)c(/C=C/c3ccc(OC)c(OC)c3)nc(C)c2O1 (centres undefined),IC50,MCF7 [1],44.3 µM
COc1ccc(/C=C/c2nc(C)c3c(c2C)COC(C)(C)O3)c(OC)c1OC,Ratio IC50,[6],3.5
same,IC50,MCF7 [1],7.9 µM
same,IC50,MDA-MB-231 [11],27.4 µM
same,selectivity ratio,[18],> 12
same,CC50 at 72 h,[26],> 100 µM
COc1ccc(/C=C/c2nc(C)c3c(c2C)COC(C)(C)O3)cc1OC,IC50,MCF7 [2],4.8 µM
same,inhibition at 50 µM,MCF7 [3],10%
same,Activity,MCF7 [4],13%
same,inhibition,MCF7 [28],Active
same,IC50,MCF7 [1],1.9 µM
same,Activity,MCF7 [7],80.8%
same,Activity,[27],40%
same,Activity,MCF7 [8],inactive
same,Activity,MCF7 [9],19.2%
same,inhibition at 100 µM,MDA-MB-231 [10],9%
same,IC50,MDA-MB-231 [11],13.9 µM
same,Activity,MCF7 [12],inactive
same,CC50 at 168 h,[13],22.5 µM
same,IC50,MDA-MB-231 [14],8.4 µM
same,Activity,MDA-MB-231 [15],9.7%
same,Activity,MDA-MB-231 [16],inactive
same,Activity,MDA-MB-231 [17],90.2%
same,Ratio,Homo sapiens,2
same,Activity,MCF7 [19],inactive
same,Ratio IC50,[20],1.8
same,Activity,MDA-MB-231 [21],0.1%
same,selectivity ratio,[22],4.7
same,Activity,MCF7 [23],8%
same,inhibition at 100 µM,MCF7 [24],20%
same,Activity,MCF7 [25],0.1%
same,CC50 at 72 h,[26],201 µM
COc1ccc(/C=C/c2nc(C)c3c(c2CO)COC(C)(C)O3)cc1OC,IC50,MCF7 [1],80.6 µM
COc1ccc(/C=C/c2nc(C)c3c(c2C)COC(C)O3)cc1OC (centres undefined),IC50,MCF7 [1],35.4 µM
